Experimental data reported in the NIST ThermoML archive (doi:10.1016/j.jct.2007.04.005).
± gives the expanded uncertainty stated by the source.

Assay: xn = mol fraction of the nth substance listed
Conditions: 298.15 K, Liquid

CCCCCCCCC [nonane] + C1CCCCC1
Conditions | mass density [kg/m3]
100 kPa, x2 = 0 | 713.6 ± 0.7
100 kPa, x2 = 0.09303 | 716.6 ± 0.7
100 kPa, x2 = 0.2009 | 720.5 ± 0.7
100 kPa, x2 = 0.3051 | 724.8 ± 0.6
100 kPa, x2 = 0.417 | 729.9 ± 0.6
100 kPa, x2 = 0.512 | 734.6 ± 0.6
100 kPa, x2 = 0.5996 | 739.8 ± 0.6
100 kPa, x2 = 0.7052 | 746.6 ± 0.6
100 kPa, x2 = 0.7993 | 753.9 ± 0.6
100 kPa, x2 = 0.9039 | 763.1 ± 0.5
101 kPa, x2 = 0 | 713.86 ± 0.67
101 kPa, x2 = 0.1022 | 717.19 ± 0.65
101 kPa, x2 = 0.1548 | 719.05 ± 0.64
101 kPa, x2 = 0.2009 | 720.75 ± 0.64
101 kPa, x2 = 0.2591 | 723.01 ± 0.63
101 kPa, x2 = 0.3306 | 726.01 ± 0.61
101 kPa, x2 = 0.4003 | 729.17 ± 0.6
101 kPa, x2 = 0.4596 | 732.07 ± 0.59
101 kPa, x2 = 0.5321 | 735.92 ± 0.58
101 kPa, x2 = 0.612 | 740.61 ± 0.57
101 kPa, x2 = 0.6649 | 744.01 ± 0.56
101 kPa, x2 = 0.7224 | 748.02 ± 0.55
101 kPa, x2 = 0.8047 | 754.4 ± 0.53
101 kPa, x2 = 0.8686 | 759.98 ± 0.52
101 kPa, x2 = 0.9405 | 767.1 ± 0.5
2130 kPa, x2 = 0 | 715.2 ± 0.8
2130 kPa, x2 = 0.09303 | 718.2 ± 0.8
2130 kPa, x2 = 0.2009 | 722.2 ± 0.7
2130 kPa, x2 = 0.3051 | 726.5 ± 0.7
2130 kPa, x2 = 0.417 | 731.5 ± 0.7
2130 kPa, x2 = 0.512 | 736.2 ± 0.7
2130 kPa, x2 = 0.5996 | 741.4 ± 0.7
2130 kPa, x2 = 0.7052 | 748.2 ± 0.6
2130 kPa, x2 = 0.7993 | 755.6 ± 0.6
2130 kPa, x2 = 0.9039 | 764.8 ± 0.6
4150 kPa, x2 = 0 | 716.8 ± 0.9
4150 kPa, x2 = 0.09303 | 719.8 ± 0.8
4150 kPa, x2 = 0.2009 | 723.8 ± 0.8
4150 kPa, x2 = 0.3051 | 728.1 ± 0.8
4150 kPa, x2 = 0.417 | 733.1 ± 0.8
4150 kPa, x2 = 0.512 | 737.8 ± 0.8
4150 kPa, x2 = 0.5996 | 743.1 ± 0.7
4150 kPa, x2 = 0.7052 | 749.9 ± 0.7
4150 kPa, x2 = 0.7993 | 757.2 ± 0.7
4150 kPa, x2 = 0.9039 | 766.5 ± 0.7
6180 kPa, x2 = 0 | 718.4 ± 0.9
6180 kPa, x2 = 0.09303 | 721.4 ± 0.9
6180 kPa, x2 = 0.2009 | 725.4 ± 0.9
6180 kPa, x2 = 0.3051 | 729.7 ± 0.9
6180 kPa, x2 = 0.417 | 734.7 ± 0.9
6180 kPa, x2 = 0.512 | 739.5 ± 0.8
6180 kPa, x2 = 0.5996 | 744.7 ± 0.8
6180 kPa, x2 = 0.7052 | 751.5 ± 0.8
6180 kPa, x2 = 0.7993 | 758.8 ± 0.8
6180 kPa, x2 = 0.9039 | 768.1 ± 0.7
8210 kPa, x2 = 0 | 719.9 ± 1
8210 kPa, x2 = 0.09303 | 722.9 ± 1
8210 kPa, x2 = 0.2009 | 726.9 ± 1
8210 kPa, x2 = 0.3051 | 731.2 ± 1
8210 kPa, x2 = 0.417 | 736.3 ± 0.9
8210 kPa, x2 = 0.512 | 741 ± 0.9
8210 kPa, x2 = 0.5996 | 746.3 ± 0.9
8210 kPa, x2 = 0.7052 | 753.1 ± 0.9
8210 kPa, x2 = 0.7993 | 760.4 ± 0.8
8210 kPa, x2 = 0.9039 | 769.7 ± 0.8
10230 kPa, x2 = 0 | 721.4 ± 1.1
10230 kPa, x2 = 0.09303 | 724.4 ± 1.1
10230 kPa, x2 = 0.2009 | 728.5 ± 1.1
10230 kPa, x2 = 0.3051 | 732.8 ± 1
10230 kPa, x2 = 0.417 | 737.9 ± 1
10230 kPa, x2 = 0.512 | 742.5 ± 1
10230 kPa, x2 = 0.5996 | 747.9 ± 1
10230 kPa, x2 = 0.7052 | 754.7 ± 0.9
10230 kPa, x2 = 0.7993 | 762 ± 0.9
10230 kPa, x2 = 0.9039 | 771.3 ± 0.9
11250 kPa, x2 = 0 | 722.2 ± 1.2
11250 kPa, x2 = 0.09303 | 725.2 ± 1.1
11250 kPa, x2 = 0.2009 | 729.2 ± 1.1
11250 kPa, x2 = 0.3051 | 733.5 ± 1.1
11250 kPa, x2 = 0.417 | 738.6 ± 1.1
11250 kPa, x2 = 0.512 | 743.3 ± 1
11250 kPa, x2 = 0.5996 | 748.6 ± 1
11250 kPa, x2 = 0.7052 | 755.5 ± 1
11250 kPa, x2 = 0.7993 | 762.8 ± 0.9
11250 kPa, x2 = 0.9039 | 772.1 ± 0.9
12260 kPa, x2 = 0 | 722.9 ± 1.2
12260 kPa, x2 = 0.09303 | 725.9 ± 1.2
12260 kPa, x2 = 0.2009 | 730 ± 1.1
12260 kPa, x2 = 0.3051 | 734.3 ± 1.1
12260 kPa, x2 = 0.417 | 739.4 ± 1.1
12260 kPa, x2 = 0.512 | 744.1 ± 1.1
12260 kPa, x2 = 0.5996 | 749.4 ± 1
12260 kPa, x2 = 0.7052 | 756.2 ± 1
12260 kPa, x2 = 0.7993 | 763.5 ± 1
12260 kPa, x2 = 0.9039 | 772.9 ± 0.9
14290 kPa, x2 = 0 | 724.4 ± 1.3
14290 kPa, x2 = 0.09303 | 727.4 ± 1.3
14290 kPa, x2 = 0.2009 | 731.5 ± 1.2
14290 kPa, x2 = 0.3051 | 735.8 ± 1.2
14290 kPa, x2 = 0.417 | 740.9 ± 1.2
14290 kPa, x2 = 0.512 | 745.5 ± 1.1
14290 kPa, x2 = 0.5996 | 750.9 ± 1.1
14290 kPa, x2 = 0.7052 | 757.8 ± 1.1
14290 kPa, x2 = 0.7993 | 765.1 ± 1
14290 kPa, x2 = 0.9039 | 774.4 ± 1
16310 kPa, x2 = 0 | 725.8 ± 1.4
16310 kPa, x2 = 0.09303 | 728.8 ± 1.3
16310 kPa, x2 = 0.2009 | 732.9 ± 1.3
16310 kPa, x2 = 0.3051 | 737.2 ± 1.3
16310 kPa, x2 = 0.417 | 742.3 ± 1.2
16310 kPa, x2 = 0.512 | 747 ± 1.2
16310 kPa, x2 = 0.5996 | 752.3 ± 1.2
16310 kPa, x2 = 0.7052 | 759.2 ± 1.1
16310 kPa, x2 = 0.7993 | 766.5 ± 1.1
16310 kPa, x2 = 0.9039 | 775.9 ± 1.1
18340 kPa, x2 = 0 | 727.2 ± 1.4
18340 kPa, x2 = 0.09303 | 730.2 ± 1.4
18340 kPa, x2 = 0.2009 | 734.3 ± 1.4
18340 kPa, x2 = 0.3051 | 738.6 ± 1.3
18340 kPa, x2 = 0.417 | 743.7 ± 1.3
18340 kPa, x2 = 0.512 | 748.4 ± 1.3
18340 kPa, x2 = 0.5996 | 753.8 ± 1.3
